Test results: patent US20250326713A1, “INHIBITORS OF MsbA AS ANTIBIOTICS, PHARMACEUTICAL COMPOSITIONS, AND USES THEREOF” (priority 2022, published 2025)
≈ marks a conversion by molar mass, not a printed value.

Each compound was assayed on various strains of bacteria (assay: Antimicrobial potency: bacterial growth inhibition by OD600 (Antibacterial assay 1, MITC95)). Conditions: Acinetobacter baumannii, 20 h, lowest concentration giving >95% growth inhibition, CAMHB, 18-22 h.
Type: cell-based, A. baumannii
Protocol: The concentrations of compounds required to inhibit the growth of various strains of bacteria were determined in an assay that assessed bacterial growth by measuring optical density at 600 nm (OD600). Test articles were dissolved in 100% DMSO and serially diluted two-fold from their maximal concentration in 100% DMSO. Forty-nine μl of bacterial inoculum (at approx. 2×10^5 cfu/mL in CAMHB) were put into wells of an assay plate. One μl of compound or DMSO was transferred from the source plate to the assay plate. The completed assay plates were then incubated at 35+2degC for 18-22 h. Bacterial growth was measured by reading OD600 on a spectrophotometer. Data analysis calculates the lowest concentration of compound which results in >95% growth inhibition (minimum inhibitory threshold concentration 95%, MITC95).

MIC | SMILES
0.391 µM (≈ 0.348 µg/mL) | CC1(Oc2ccc(NS(=O)(=O)N3CCOC(c4ccc(Cl)cc4)C3)c(C(=O)O)c2)CN(Cc2ccc(NS(=O)(=O)N3CCOC(c4ccc(Cl)cc4)C3)c(C(=O)O)c2)C1 (centres unmarked) [Compound 46]
1.57 µM (≈ 1.25 µg/mL) | O=C(O)c1cc(OC2CN(Cc3ccc(NS(=O)(=O)N4CCOC(c5ccc(F)cc5)C4)c(C(=O)O)c3)C2)ccc1NS(=O)(=O)N1CCOC(CCO)C1 (centres unmarked) [Compound 47]
0.321 µM (≈ 0.278 µg/mL) | O=C(O)c1cc(CN[C@H]2C[C@@H](NCc3ccc(NS(=O)(=O)c4cnn(-c5ccc(Cl)cc5)c4)c(C(=O)O)c3)C2)ccc1NS(=O)(=O)c1cnn(-c2ccc(Cl)cc2)c1 [Compound 48, 5-((((1s, 3s)-3-((3-carboxy-4-((1-(4-chlorophenyl)-1H-pyrazole)-4-sulfonamido)benzyl)amino)cyclobutyl)amino)methyl)-2-((1-(4-chlorophenyl)-1H-pyrazole)-4-sulfonamido)benzoic acid]
1.56 µM (≈ 1.3 µg/mL) | O=C(O)c1cc(CN[C@H]2C[C@@H](NCc3ccc(NS(=O)(=O)c4cnn(-c5ccc(F)cc5)c4)c(C(=O)O)c3)C2)ccc1NS(=O)(=O)c1cnn(-c2ccc(F)cc2)c1 [Compound 49]
0.391 µM (≈ 0.349 µg/mL) | O=C(O)c1cc(CNC23CCC(NCc4ccc(NS(=O)(=O)c5cnn(-c6ccc(Cl)cc6)c5)c(C(=O)O)c4)(C2)C3)ccc1NS(=O)(=O)c1cnn(-c2ccc(Cl)cc2)c1 [Compound 50]
3.13 µM (≈ 2.75 µg/mL) | C[C@]1(NCc2ccc(NS(=O)(=O)c3cnn(-c4ccc(Cl)cc4)c3)c(C(=O)O)c2)C[C@@H](NCc2ccc(NS(=O)(=O)c3cnn(-c4ccc(Cl)cc4)c3)c(C(=O)O)c2)C1 [Compound 51]
0.553 µM (≈ 0.488 µg/mL) | CS(=O)(=O)NC(=O)c1cc(OC2CN(Cc3ccc(NS(=O)(=O)c4cnn(-c5ccc(F)cc5)c4)c(C(=O)O)c3)C2)ccc1NS(=O)(=O)c1cnn(-c2ccc(F)cc2)c1 [Compound 52, 2-((1-(4-fluorophenyl)-1H-pyrazole)-4-sulfonamido)-5-((3-(4-((1-(4-fluorophenyl)-1H-pyrazole)-4-sulfonamido)-3-((methylsulfonyl)carbamoyl)phenoxy)azetidin-1-yl)methyl)benzoic acid]
0.0346 µM (≈ 0.0278 µg/mL) | O=C(NCc1ccc(Cl)cc1)C(=O)Nc1ccc(OC2CN(Cc3ccc(NS(=O)(=O)c4ccc(-c5ccc(Cl)cc5)cc4)c(C(=O)O)c3)C2)cc1C(=O)O [Compound 54, 5-((1-(3-carboxy-4-((4′-chloro-[1,1′-biphenyl])-4-sulfonamido)benzyl)azetidin-3-yl)oxy)-2-(2-((4-chlorobenzyl)amino)-2-oxoacetamido)benzoic acid]
0.0978 µM (≈ 0.0779 µg/mL) | O=C(NCc1ccc(Cl)cc1)C(=O)Nc1ccc(CN2CC(Oc3ccc(NS(=O)(=O)N4CCOC(c5ccc(F)cc5)C4)c(C(=O)O)c3)C2)cc1C(=O)O (centres unmarked) [Compound 56]
0.0245 µM (≈ 0.0194 µg/mL) | O=C(NCc1ccc(Cl)cc1)C(=O)Nc1ccc(OC2CN(Cc3ccc(NS(=O)(=O)c4cnn(-c5ccc(Cl)cc5)c4)c(C(=O)O)c3)C2)cc1C(=O)O [Compound 58]
0.0245 µM (≈ 0.0195 µg/mL) | O=C(NCc1ccc(Cl)cc1)C(=O)Nc1ccc(OC2CN(Cc3ccc(NS(=O)(=O)c4cc(-c5ccc(F)cc5)ns4)c(C(=O)O)c3)C2)cc1C(=O)O [Compound 59]
0.0122 µM (≈ 0.00991 µg/mL) | O=C(NCc1ccc(Cl)cc1)C(=O)Nc1ccc(OC2CN(Cc3ccc(NS(=O)(=O)N4CCOC(c5ccc(Cl)cc5)C4)c(C(=O)O)c3)C2)cc1C(=O)O (centres unmarked) [Compound 60]
0.196 µM (≈ 0.148 µg/mL) | O=C(NCc1ccc(Cl)cc1)C(=O)Nc1ccc(OC2CN(Cc3ccc(NS(=O)(=O)CCc4ccc(Cl)cc4)c(C(=O)O)c3)C2)cc1C(=O)O [Compound 61]
< 0.0488 µM | O=C(NCc1ccccc1)C(=O)Nc1ccc(OC2CN(Cc3ccc(NS(=O)(=O)c4ccc(-c5ccc(Cl)cc5)cc4)c(C(=O)O)c3)C2)cc1C(=O)O [Compound 62]
0.196 µM (≈ 0.158 µg/mL) | O=C(NCc1cccc(Cl)c1)C(=O)Nc1ccc(OC2CN(Cc3ccc(NS(=O)(=O)c4ccc(-c5ccc(Cl)cc5)cc4)c(C(=O)O)c3)C2)cc1C(=O)O [Compound 63]
0.0489 µM (≈ 0.0374 µg/mL) | O=C(CCc1ccc(Cl)cc1)Nc1ccc(OC2CN(Cc3ccc(NS(=O)(=O)c4cnn(-c5ccc(Cl)cc5)c4)c(C(=O)O)c3)C2)cc1C(=O)O [Compound 65, 5-((1-(3-carboxy-4-((1-(4-chlorophenyl)-1H-pyrazole)-4-sulfonamido)-benzyl)azetidin-3-yl)oxy)-2-(3-(4-chlorophenyl)propanamido)benzoic acid]
0.0489 µM (≈ 0.0378 µg/mL) | O=C(CCCCCc1ccccc1)Nc1ccc(OC2CN(Cc3ccc(NS(=O)(=O)c4cnn(-c5ccc(Cl)cc5)c4)c(C(=O)O)c3)C2)cc1C(=O)O [Compound 66]
0.0245 µM (≈ 0.0184 µg/mL) | O=C(Cc1cccc(Cl)c1)Nc1ccc(OC2CN(Cc3ccc(NS(=O)(=O)c4cc(-c5ccc(F)cc5)ns4)c(C(=O)O)c3)C2)cc1C(=O)O [Compound 67]

MIC | SMILES
0.0245 µM (≈ 0.0191 µg/mL) | O=C(CCCc1ccc(Cl)cc1)Nc1ccc(OC2CN(Cc3ccc(NS(=O)(=O)c4cnn(-c5ccc(Cl)cc5)c4)c(C(=O)O)c3)C2)cc1C(=O)O [Compound 69]
0.0978 µM (≈ 0.0782 µg/mL) | O=C(CCc1ccc(Cl)c(Cl)c1)Nc1ccc(OC2CN(Cc3ccc(NS(=O)(=O)c4cnn(-c5ccc(Cl)cc5)c4)c(C(=O)O)c3)C2)cc1C(=O)O [Compound 71]
0.0978 µM (≈ 0.0728 µg/mL) | O=C(CCCc1ccccc1)Nc1ccc(OC2CN(Cc3ccc(NS(=O)(=O)c4cnn(-c5ccc(Cl)cc5)c4)c(C(=O)O)c3)C2)cc1C(=O)O [Compound 72]
0.196 µM (≈ 0.147 µg/mL) | O=C(Cc1cccc(Cl)c1)Nc1ccc(OC2CN(Cc3ccc(NS(=O)(=O)c4cnn(-c5ccc(Cl)cc5)c4)c(C(=O)O)c3)C2)cc1C(=O)O [Compound 73]
0.31 µM (≈ 0.263 µg/mL) | O=C(CCCCC(c1ccccc1)c1ccccc1)Nc1ccc(OC2CN(Cc3ccc(NS(=O)(=O)c4cnn(-c5ccc(Cl)cc5)c4)c(C(=O)O)c3)C2)cc1C(=O)O [Compound 74]
0.277 µM (≈ 0.219 µg/mL) | O=C(CCCC(=O)c1ccc(F)cc1)Nc1ccc(OC2CN(Cc3ccc(NS(=O)(=O)c4cnn(-c5ccc(Cl)cc5)c4)c(C(=O)O)c3)C2)cc1C(=O)O [Compound 75]
0.782 µM (≈ 0.571 µg/mL) | O=C(O)c1cc(CN2CC(Oc3ccc(NS(=O)(=O)CCc4ccc(F)cc4)c(C(=O)O)c3)C2)ccc1NS(=O)(=O)CCc1ccc(F)cc1 [Compound 78, 5-((1-(3-carboxy-4-((2-(4-fluorophenyl)ethyl)sulfonamido)benzyl)azetidin-3-yl)oxy)-2-((2-(4-fluorophenyl)ethyl)sulfonamido)benzoic acid]
0.0978 µM (≈ 0.0746 µg/mL) | O=C(O)c1cc(CN2CC(Oc3ccc(NS(=O)(=O)CCc4ccc(Cl)cc4)c(C(=O)O)c3)C2)ccc1NS(=O)(=O)CCc1ccc(Cl)cc1 [Compound 79]
0.0122 µM (≈ 0.00995 µg/mL) | O=C(O)c1cc(CN2CC(Oc3ccc(NS(=O)(=O)N4CC(Oc5ccc(F)cc5)C4)c(C(=O)O)c3)C2)ccc1NS(=O)(=O)N1CC(Oc2ccc(F)cc2)C1 [Compound 80, 5-((1-(3-carboxy-4-((3-(4-fluorophenoxy)azetidine)-1-sulfonamido)benzyl)azetidin-3-yl)oxy)-2-((3-(4-fluorophenoxy)azetidine)-1-sulfonamido)benzoic acid]
0.0346 µM (≈ 0.0271 µg/mL) | O=C(O)c1cc(OC2CN(Cc3ccc(NS(=O)(=O)c4cnn(-c5ccc(Cl)cc5)c4)c(C(=O)O)c3)C2)ccc1NS(=O)(=O)CCc1ccc(F)cc1 [Compound 82]
0.0346 µM (≈ 0.0269 µg/mL) | O=C(O)c1cc(OC2CN(Cc3ccc(NS(=O)(=O)c4ccc(-c5ccc(F)cc5)cc4)c(C(=O)O)c3)C2)ccc1NS(=O)(=O)CCc1ccc(F)cc1 [Compound 83]
0.0691 µM (≈ 0.0544 µg/mL) | O=C(O)c1cc(OC2CN(Cc3ccc(NS(=O)(=O)N4CCOC(c5ccc(F)cc5)C4)c(C(=O)O)c3)C2)ccc1NS(=O)(=O)CCc1ccc(F)cc1 (centres unmarked) [Compound 84]
0.0173 µM (≈ 0.0139 µg/mL) | O=C(O)c1cc(OC2CN(Cc3ccc(NS(=O)(=O)c4cnc(-c5ccc(Cl)cc5)s4)c(C(=O)O)c3)C2)ccc1NS(=O)(=O)CCc1ccc(F)cc1 [Compound 85]
0.0245 µM (≈ 0.0188 µg/mL) | O=C(O)c1cc(OC2CN(Cc3ccc(NS(=O)(=O)c4ccc(-c5ccccc5)s4)c(C(=O)O)c3)C2)ccc1NS(=O)(=O)CCc1ccc(F)cc1 [Compound 86]
0.0122 µM (≈ 0.0104 µg/mL) | O=C(O)c1cc(OC[C@H]2C[C@@H](NCc3ccc(NS(=O)(=O)N4CCOC(c5ccc(F)cc5)C4)c(C(=O)O)c3)C2)ccc1NS(=O)(=O)c1cnn(-c2ccc(F)cc2)c1 (some centres unmarked) [Compound 88]
< 0.00306 µM | O=C(O)c1cc(OC[C@H]2C[C@@H](NCc3ccc(NS(=O)(=O)N4CCOC(c5ccc(F)cc5)C4)c(C(=O)O)c3)C2)ccc1NS(=O)(=O)c1cnn(-c2ccc(Cl)cc2)c1 (some centres unmarked) [Compound 89]
0.00865 µM (≈ 0.00717 µg/mL) | O=C(O)c1cc(CN[C@H]2C[C@@H](COc3ccc(NS(=O)(=O)c4cnc(-c5ccc(Cl)cc5)s4)c(C(=O)O)c3)C2)ccc1NS(=O)(=O)CCc1ccc(F)cc1 [Compound 90]
0.0173 µM (≈ 0.015 µg/mL) | Cn1nc(-c2ccc(F)cc2)cc1S(=O)(=O)Nc1ccc(CN[C@H]2C[C@@H](COc3ccc(NS(=O)(=O)c4cnn(-c5ccc(Cl)cc5)c4)c(C(=O)O)c3)C2)cc1C(=O)O [Compound 91]

Same assay, conditions: lowest concentration giving >95% growth inhibition, CAMHB, 18-22 h

SMILES | MIC
O=C(O)c1cc(OC2CN(Cc3ccc(NS(=O)(=O)c4ccc(-c5ccc(Cl)cc5)cc4)c(C(=O)O)c3)C2)ccc1NS(=O)(=O)CCc1ccc(F)cc1 [Compound 81, 5-((3-(3-carboxy-4-((2-(4-fluorophenyl)ethyl)sulfonamido)phenoxy)azetidin-1-yl)methyl)-2-((4′-chloro-[1, l′-biphenyl])-4-sulfonamido)benzoic acid] | 0.0122 µM (≈ 0.00969 µg/mL)
O=C(O)c1cc(CNC2CC(COc3ccc(NS(=O)(=O)c4cnn(-c5ccc(Cl)cc5)c4)c(C(=O)O)c3)C2)ccc1NS(=O)(=O)c1cnn(-c2ccc(Cl)cc2)c1 (centres unmarked) [Compound 87, 5-(((1s, 3s)-3-((3-carboxy-4-((1-(4-chlorophenyl)-1H-pyrazole)-4-sulfonamido)benzyl)amino)cyclobutyl)methoxy)-2-((1-(4-chlorophenyl)-1H-pyrazole)-4-sulfonamido)benzoic acid] | 0.0245 µM (≈ 0.0212 µg/mL)
